In US11325929B2 (VivaVisionShanghaiLtd, priority 2017, dated 2022):
Read-outs that look alike come from different tables or passages of the source.

System: human T lymphocyte strain Jurkat (ATCC TIB-152) adhesion to ICAM-1
Experiment: T-cell adhesion assay (Jurkat cells on ICAM-1 coated plates)
Format: cell-based
Settings: BCECF-AM labelled Jurkat cells, ICAM-1 coated plate, fluorescence readout, read-out: EC50 of cell adhesion and inhibition
Protocol: Cell Adhesion Inhibition Experiments:
T-cell adhesion assay was performed using human T lymphocyte strain Jurkat (ATCC TIB-152): goat Anti-Human IgG (Fc specific) (Sigma 18885) was diluted to 10 μg/ml in PBS, incubated 100 μL per well/96 well plate at 4° C. for 12 hours. Liquid in the well plate was poured off, blocked with 200 μL of 1% BSA at 37° C. for 90 minutes, and washed three times with PBS. 50 μL of 1 μg/mL ICAM-1 (containing 0.1% BSA, 0.01% Tween 20) was added to each well and incubated at 37° C. for 3 hours. The plate was washed 3 times with assay buffer (20 mM HEPES pH 7.6, 140 mM NaCl, 1 mM MgCl2, 1 mM MnCl2, 0.2% glucose).
The Jurkat […] was centrifuged at 100-G, and cells were resuspended in an assay buffer (20 mM HEPES pH 7.6, 140 mM NaCl, 1 mM MgCl2, 1 mM MnCl2, 0.2% glucose) at 37° C.
2 μl of 1 mM of BCECF-AM per mL of the cell suspension was added. Incubated at 37° C. for 30 minutes, stirred up every 10 minutes during the incubation. After the incubation, the cells were washed with assay buffer at 37° C. The cells were suspended to a concentration of 6×10^6/mL.
The inhibitor was diluted to a final concentration of 2× in assay buffer, and 50 μL of the compound solution and […] of Jurkat cells were mixed at room temperature, and incubated at 37° C. for 30 minutes. 100 μL/well of cells and inhibitors were added to the plate and incubated for 1 hour at room temperature. The total fluorescence was measured by a fluorometer: ex: 485; em: 530; cutoff: 530 to measure the total fluorescence. The plate was washed once with the assay buffer and the fluorescence was measured with a fluorometer: ex: 485; em: 530; cutoff. The results are plotted as inhibition-concentration plots and EC50 is calculated using standard methods.

| Compound | EC50 (Homo sapiens) | EC50 |
| --- | --- | --- |
| 2-(2,6-dichloro-4-(2-(methyl(3-hydroxyphenyl)phosphoryl)ethyl)benzylamino)-3-(3,5-(dimethylsulfonyl)phenyl)propionic Acid [Example 36] | – | 30 nM |
| CS(=O)(=O)c1cccc(C[C@H](NC(=O)c2c(Cl)cc(CCP(=O)(O)c3ccccc3)cc2Cl)C(=O)O)c1 [Example 1, (2s)-2-(2,6-dichloro-4-(2-(hydroxy(phenyl)phosphoryl)ethyl)benzamido)-3-(3-(methylsulfonyl)phenyl)propionic Acid] | 30 nM | – |
| COP(=O)(C#Cc1cc(Cl)c(C(=O)N[C@@H](Cc2cccc(S(C)(=O)=O)c2)C(=O)O)c(Cl)c1)c1ccccc1 (some centres unmarked) [Example 5] | 22 nM | – |
| CCOP(=O)(CCc1cc(Cl)c(C(=O)N[C@@H](Cc2cccc(S(C)(=O)=O)c2)C(=O)O)c(Cl)c1)c1cccc(O)c1 (some centres unmarked) [Example 6, (2s)-2-(2,6-dichloro-4-(2-(ethoxy(m-hydroxyphenyl)phosphoryl)ethyl)benzamido)-3-(3-(methylsulfonyl)phenyl)propionic Acid] | 17 nM | – |
| COP(=O)(C#Cc1cc(Cl)c(C(=O)N[C@@H](Cc2cccc(S(C)(=O)=O)c2)C(=O)O)c(Cl)c1)c1cccc(O)c1 (some centres unmarked) [Example 7] | 7.2 nM | – |
| COP(=O)(CCc1cc(Cl)c(C(=O)N[C@@H](Cc2cccc(S(C)(=O)=O)c2)C(=O)O)c(Cl)c1)c1cccc(O)c1 (some centres unmarked) [Example 8, (2s)-2-(2,6-dichloro-4-(2-(methoxy(3-hydroxyphenyl)phosphoryl)ethyl)benzylamido)-3-(3-(methylsulfonyl)phenyl)propionic Acid] | 6.2 nM | – |
| CP(=O)(CCc1cc(Cl)c(C(=O)N[C@@H](Cc2cccc(S(C)(=O)=O)c2)C(=O)O)c(Cl)c1)c1ccccc1 (some centres unmarked) [Example 10, (2s)-2-(2,6-dichloro-4-(2-(methyl(phenyl)phosphoryl)ethyl)benzamide)-3-(3-(methylsulfonyl)phenyl)propionic Acid] | 78 nM | – |
| COc1cccc(P(=O)(C#Cc2cc(Cl)c(C(=O)N[C@@H](Cc3cccc(S(C)(=O)=O)c3)C(=O)O)c(Cl)c2)OC)c1 (some centres unmarked) [Example 12] | 29 nM | – |
| COc1cccc(P(=O)(O)C#Cc2cc(Cl)c(C(=O)N[C@@H](Cc3cccc(S(C)(=O)=O)c3)C(=O)O)c(Cl)c2)c1 [Example 13] | 29 nM | – |
| CP(=O)(CCc1cc(Cl)c(C(=O)N[C@@H](CN/C(=N\C#N)N2CC[C@@H](O)C2)C(=O)O)c(Cl)c1)c1cccc(O)c1 (stereo partly drawn) [Example 19, (2s)-3-((R)—N′-cyano-3-hydroxytetrahydropyrrol-1-formamidino)-2-(2,6-dichloro-4-(2-(methyl(3-hydroxyphenyl)phosphoryl)ethyl)benzamido)propionic Acid] | 230 nM | – |
| CCCCP(=O)(CCc1cc(Cl)c(C(=O)N[C@@H](Cc2cccc(S(C)(=O)=O)c2)C(=O)O)c(Cl)c1)c1cccc(O)c1 (some centres unmarked) [Example 23] | 61 nM | – |
| CP(=O)(CCc1cc(Cl)c(C(=O)N[C@@H](Cc2cccc(S(C)(=O)=O)c2)C(=O)O)c(Cl)c1)c1ccc2ccoc2c1 (some centres unmarked) [Example 25] | 63 nM | – |
| CCOP(=O)(/C=C/c1cc(Cl)c(C(=O)N[C@@H](Cc2cccc(S(C)(=O)=O)c2)C(=O)O)c(Cl)c1)c1cccc(O)c1 (stereo partly drawn) [Example 32, (S,E)-2-(4-(2-(3-hydroxyphenyl)phosphonovinyl)-2,6-dichlorobenzamide)-3-(3-(methylsulfonyl)phenyl)propionic Acid] | 3.7 nM | – |
| CP(=O)(CCc1cc(Cl)c(C(=O)N[C@@H](CCCCNS(C)(=O)=O)C(=O)O)c(Cl)c1)c1cccc(O)c1 (some centres unmarked) [Example 37] | > 1000 nM | – |
| CP(=O)(CCc1cc(Cl)c(C(=O)N[C@@H](Cc2cncc(S(C)(=O)=O)c2)C(=O)O)c(Cl)c1)c1cccc(O)c1 (some centres unmarked) [Example 38] | 24 nM | – |
| CP(=O)(CCc1cc(Cl)c(C(=O)N[C@@H](CC2CCN(S(C)(=O)=O)C2)C(=O)O)c(Cl)c1)c1cccc(O)c1 (some centres unmarked) [Example 42] | 150 nM | – |

The remaining compounds from weak to strong by EC50 (Homo sapiens), led by results:

| EC50 (Homo sapiens) | Compound | EC50 |
| --- | --- | --- |
| 23 nM | CP(=O)(CCc1cc(Cl)c(C(=O)N[C@@H](Cc2cccc(S(C)(=O)=O)c2)C(=O)O)c(Cl)c1)c1cc2ccccc2o1 (some centres unmarked) [Example 26] | – |
| 22 nM | CS(=O)(=O)c1cccc(C[C@H](NC(=O)c2c(Cl)cc(CCP(=O)(c3cccc(O)c3)C3CC3)cc2Cl)C(=O)O)c1 (some centres unmarked) [Example 22] | – |
| 15 nM | CP(=O)(CCc1cc(Cl)c(C(=O)N[C@@H](CNC(=O)c2cccs2)C(=O)O)c(Cl)c1)c1cccc(O)c1 (some centres unmarked) [Example 17, (2s)-2-(2,6-dichloro-4-(2-(methyl(3-hydroxyphenyl)phosphoryl)ethyl)benzamido)-3-(2-thenoylamide)propyl Acid] | – |
| 13.5 nM | CP(=O)(C#Cc1cc(Cl)c(C(=O)N[C@@H](Cc2cccc(S(C)(=O)=O)c2)C(=O)O)c(Cl)c1)c1cccc(O)c1 (some centres unmarked) [Example 11] | – |
| 12.5 nM | CP(=O)(CCc1cc(Cl)c(C(=O)N[C@@H](CNC(=O)c2cccc(O)c2)C(=O)O)c(Cl)c1)c1cccc(O)c1 (some centres unmarked) [Example 34, (2s)-2-(2,6-dichloro-4-(2-(methyl(3-hydroxyphenyl)phosphoryl)ethyl)benzamido)-3-(3-hydroxybenzamido)propionic Acid] | – |
| 11.8 nM | CP(=O)(C#Cc1cc(Cl)c(C(=O)N[C@@H](Cc2cccc(S(C)(=O)=O)c2)C(=O)O)c(Cl)c1)c1ccccc1 (some centres unmarked) [Example 9] | – |
| 10.8 nM | CP(=O)(CCc1cc(Cl)c(C(=O)N[C@@H](Cc2cccc(S(C)(=O)=O)c2)C(=O)O)c(Cl)c1)c1ccc(O)cc1 (some centres unmarked) [Example 33] | – |
| 9.4 nM | CS(=O)(=O)c1cccc(C[C@H](NC(=O)c2c(Cl)cc(C#CP(=O)(O)c3cccc(O)c3)cc2Cl)C(=O)O)c1 [Example 2] | – |
| 8.5 nM | CS(=O)(=O)c1cccc(C[C@H](NC(=O)c2c(Cl)cc(CCP(=O)(O)c3cccc(O)c3)cc2Cl)C(=O)O)c1 [Example 3, (2s)-2-(2,6-dichloro-4-(2-(hydroxy(m-hydroxyphenyl)phosphoryl)ethyl)benzamido)-3-(3-(methylsulfonyl)phenyl)propionic Acid] | – |
| 8.5 nM | CP(=O)(CCc1cc(Cl)c(C(=O)N[C@@H](Cc2cccc(S(C)(=O)=O)c2)C(=O)O)c(Cl)c1)c1cccc(O)c1 (some centres unmarked) [Example 14] | – |
| 7.3 nM | CCP(=O)(CCc1cc(Cl)c(C(=O)N[C@@H](Cc2cccc(S(C)(=O)=O)c2)C(=O)O)c(Cl)c1)c1cccc(O)c1 (some centres unmarked) [Example 21] | – |
| 7.2 nM | CS(=O)(=O)c1cccc(C[C@H](NC(=O)c2c(Cl)cc(C#CP(=O)(O)c3ccccc3)cc2Cl)C(=O)O)c1 [Example 16] | – |
| 7.2 nM | C[P@](=O)(CCc1cc(Cl)c(C(=O)N[C@@H](Cc2cccc(S(C)(=O)=O)c2)C(=O)O)c(Cl)c1)c1cccc(O)c1 [Example 30] | – |
| 7.1 nM | C[P@@](=O)(CCc1cc(Cl)c(C(=O)N[C@@H](Cc2cccc(S(C)(=O)=O)c2)C(=O)O)c(Cl)c1)c1cccc(O)c1 [Example 31] | – |
| 3.8 nM | CP(=O)(CCc1cc(Cl)c(C(=O)N[C@@H](CNC(=O)c2cc(O)cc(O)c2)C(=O)O)c(Cl)c1)c1cccc(O)c1 (some centres unmarked) [Example 35, (2s)-2-(2,6-dichloro-4-(2-(methyl(3-hydroxyphenyl)phosphoryl)ethyl)benzamido)-3-(3,5-dihydroxybenzamido)propionic Acid] | – |
| 1.8 nM | CP(=O)(C#Cc1cc(Cl)c(C(=O)N[C@@H](Cc2cccc(S(C)(=O)=O)c2)C(=O)O)c(Cl)c1)c1ccc(O)cc1 (some centres unmarked) [Example 15] | – |
